pIC50: −log10 of the molar value. *1 amine or outer side, *2 acyl side, *3 side chain or, on linkers, in order; H or OH if unused. Where a SMILES comes first, the peptide text is derived from it. Bridges are numbered along the chain shown (N, C = ends). [ ]: non-standard residue; d: D form. The star is where a group is joined. ξ: configuration not given here. Phe(3-CF3) = N[C@@H](Cc1cccc(C(F)(F)F)c1)C(=O)O; Phe(4-COOH) = N[C@@H](Cc1ccc(C(=O)O)cc1)C(=O)O; Bip = N[C@@H](Cc1ccc(-c2ccccc2)cc1)C(=O)O; Phe(3-Me) = Cc1cccc(C[C@H](N)C(=O)O)c1; γGlu = O=C(O)[C@H](CCC(=O)[*:2])N[*:1]; Val(3-OH) = CC(C)(O)[C@H](N)C(=O)O; NMeR = CN[C@@H](CCCNC(=N)N)C(=O)O; aIle = CC[C@@H](C)[C@H](N)C(=O)O; hPhe = N[C@@H](CCc1ccccc1)C(=O)O; 4Pal = N[C@@H](Cc1ccncc1)C(=O)O; NMeE = CN[C@@H](CCC(=O)O)C(=O)O; 3Thi = N[C@@H](Cc1ccsc1)C(=O)O; Cha = N[C@@H](CC1CCCCC1)C(=O)O; Ile(3ξ) = CCC(C)[C@H](N)C(=O)O; Thr(3ξ) = CC(O)[C@H](N)C(=O)O; Carboxymethyl = O=C(O)C*; NMeA = CN[C@@H](C)C(=O)O; Orn = NCCC[C@H](N)C(=O)O; dDap = NC[C@@H](N)C(=O)O; Aun = NCCCCCCCCCCC(=O)O; Dab = NCC[C@H](N)C(=O)O; Dap = NC[C@H](N)C(=O)O; AEEA = NCCOCCOCC(=O)O; Sar = CNCC(=O)O
Target: T1, PD-1/PD-L1 interaction (PE-labeled human PD-L1-Ig binding to Jurkat cell line over-expressing human PD-1) (Homo sapiens, UniProt Q15116)
T1 construct: expressed in transfected cells; host or cells: Jurkat
T1 sequence (Q15116 25-288): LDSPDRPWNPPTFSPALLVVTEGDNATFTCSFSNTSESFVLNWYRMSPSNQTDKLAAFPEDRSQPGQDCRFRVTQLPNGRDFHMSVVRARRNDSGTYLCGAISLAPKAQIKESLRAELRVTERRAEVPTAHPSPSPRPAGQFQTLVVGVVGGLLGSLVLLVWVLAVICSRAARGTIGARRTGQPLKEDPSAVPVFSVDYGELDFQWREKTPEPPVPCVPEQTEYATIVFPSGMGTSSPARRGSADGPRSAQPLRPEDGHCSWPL
Assay: Jurkat-PD-1 Cell Binding High-Content Screening Assay (CBA)
Conditions: Jurkat-hPD-1 cells, PE-labeled PD-L1-Ig 20 nM final; read-out: Jurkat HPD1 PDL1 IC50
Procedure, shortened: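 Read-out: high-content imaging of cell-bound PE fluorescence, with Hoechst 33342 nuclear counterstain after paraformaldehyde fixation. Before labeled ligand (20 nM final, 1 h) was added, compound sat on the cells for 2 h at 37 °C in DMEM/10% FCS.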

Row | pIC50 | Compound
1 | 7.01 | Cc1cccc(C[C@@H]2NC(=O)[C@H](CC(=O)O)NC(=O)[C@H](Cc3ccc(OCC(=O)O)cc3)NC(=O)[C@H](Cc3ccc(OCC(=O)O)cc3)NC(=O)CSC[C@@H](C(=O)NCCCCCCCCCCC(=O)O)NC(=O)[C@H](CCC(=O)O)NC(=O)[C@H](C(C)C)NC(=O)[C@H](CC3CCCCC3)NC(=O)[C@H](CCN)NC(=O)[C@@H](CC(C)C)NC(=O)[C@H](CCC(=O)O)N(C)C(=O)[C@H](Cc3ccc(O)cc3)NC(=O)[C@H](Cc3ccc(-c4ccccc4)cc3)NC(=O)[C@H](Cc3ccc(O)cc3)NC2=O)c1 [Example 2256] ({CH2CO}-Y(Carboxymethyl)Y(Carboxymethyl)D[Phe(3-Me)]Y[Bip]Y[NMeE][dL][Dab][Cha]VEC[Aun]-OH; thioether N-14)
2 | 6.82 | Cc1cccc(C[C@@H]2NC(=O)[C@H](CC(=O)O)NC(=O)[C@H](Cc3ccc(OCC(=O)O)cc3)NC(=O)[C@H](C(C)O)NC(=O)CSC[C@@H](C(=O)N(C)[C@@H](CCCNC(=N)N)C(=O)NCCCCCCCCCCC(=O)O)NC(=O)[C@H](CO)NC(=O)[C@H](C(C)C)NC(=O)[C@H](CC3CCCCC3)NC(=O)[C@H](CCN)NC(=O)[C@@H](CC(C)C)NC(=O)[C@H](C)N(C)C(=O)[C@H](C(C)C)NC(=O)[C@H](Cc3ccc(-c4ccccc4)cc3)NC(=O)[C@H](C(C)C)NC2=O)c1 (stereo partly drawn) [Example 2301] ({CH2CO}-[Thr(3ξ)]Y(Carboxymethyl)D[Phe(3-Me)]V[Bip]V[NMeA][dL][Dab][Cha]VSC[NMeR][Aun]-OH; thioether N-14)
3 | 7.69 | CC(=O)NCCCC[C@@H]1NC(=O)[C@H](Cc2ccc(-c3ccccc3)cc2)NC(=O)[C@H](C(C)C)NC(=O)[C@H](Cc2cccc(C)c2)NC(=O)[C@H](CC(=O)O)NC(=O)[C@H](Cc2ccc(C(=O)O)cc2)NC(=O)[C@H](Cc2ccc(OCC(=O)O)cc2)NC(=O)CSC[C@@H](C(=O)NCCOCCOCC(=O)NCCCCCCCCCCC(=O)O)NC(=O)[C@H](C(C)O)NC(=O)[C@H](C(C)C)NC(=O)[C@H](CC2CCCCC2)NC(=O)[C@H](CCN)NC(=O)[C@@H](CC(C)C)NC(=O)[C@H](C)N(C)C1=O (stereo partly drawn) [Example 2283] ({CH2CO}-Y(Carboxymethyl)[Phe(4-COOH)]D[Phe(3-Me)]V[Bip]K(Ac)[NMeA][dL][Dab][Cha]V[Thr(3ξ)]C[AEEA][Aun]-OH; thioether N-14)
4 | 6.85 | Cc1cccc(C[C@@H]2NC(=O)[C@H](CC(=O)O)NC(=O)[C@H](Cc3ccc(OCC(=O)O)cc3)NC(=O)[C@H](CCc3ccccc3)NC(=O)CSC[C@@H](C(=O)N[C@@H](CCN)C(=O)NCCCCCCCCCCC(=O)O)NC(=O)[C@H](CO)NC(=O)[C@H](C(C)C)NC(=O)[C@H](CC3CCCCC3)NC(=O)[C@H](CCN)NC(=O)[C@@H](CC(C)C)NC(=O)[C@H](C)N(C)C(=O)[C@H](Cc3ccc(O)cc3)NC(=O)[C@H](Cc3ccc(-c4ccccc4)cc3)NC(=O)[C@H](Cc3ccc(OCC(=O)O)cc3)NC2=O)c1 [Example 1276] ({CH2CO}-[hPhe]Y(Carboxymethyl)D[Phe(3-Me)]Y(Carboxymethyl)[Bip]Y[NMeA][dL][Dab][Cha]VSC[Dab][Aun]-OH; thioether N-14)
5 | 6.76 | CC(=O)NCCCC[C@@H]1NC(=O)[C@H](C(C)C)NC(=O)[C@H](CC2CCCCC2)NC(=O)[C@H](CCN)NC(=O)[C@@H](CC(C)C)NC(=O)[C@H](C)N(C)C(=O)[C@H](Cc2ccc(O)cc2)NC(=O)[C@H](Cc2ccc(-c3ccccc3)cc2)NC(=O)[C@H](C(C)C)NC(=O)[C@H](Cc2cccc(C)c2)NC(=O)[C@H](CC(=O)O)NC(=O)[C@H](Cc2ccc(OCC(=O)O)cc2)NC(=O)[C@H](Cc2ccncc2)NC(=O)CSC[C@@H](C(=O)N(C)CC(=O)NCCCCCCCCCCC(=O)O)NC1=O [Example 2276] ({CH2CO}-[4Pal]Y(Carboxymethyl)D[Phe(3-Me)]V[Bip]Y[NMeA][dL][Dab][Cha]VK(Ac)C[Sar][Aun]-OH; thioether N-14)
6 | 7.38 | Cc1cccc(C[C@@H]2NC(=O)[C@H](CC(=O)O)NC(=O)[C@H](Cc3ccc(OCC(=O)O)cc3)NC(=O)[C@H](C(C)O)NC(=O)CSC[C@@H](C(=O)NCCOCCOCC(=O)NCCCCCCCCCCC(=O)O)NC(=O)[C@H](C(C)O)NC(=O)[C@H](C(C)C)NC(=O)[C@H](CC3CCCCC3)NC(=O)[C@H](CCN)NC(=O)[C@@H](CC(C)C)NC(=O)[C@H](C)N(C)C(=O)[C@H](Cc3ccc(OCC(=O)O)cc3)NC(=O)[C@H](Cc3ccc(-c4ccccc4)cc3)NC(=O)[C@H](Cc3ccc(OCC(=O)O)cc3)NC2=O)c1 (stereo partly drawn) [Example 2341] ({CH2CO}-[Thr(3ξ)]Y(Carboxymethyl)D[Phe(3-Me)]Y(Carboxymethyl)[Bip]Y(Carboxymethyl)[NMeA][dL][Dab][Cha]V[Thr(3ξ)]C[AEEA][Aun]-OH; thioether N-14)
7 | 7.38 | Cc1cccc(C[C@@H]2NC(=O)[C@H](CC(=O)O)NC(=O)[C@H](Cc3ccc(OCC(=O)O)cc3)NC(=O)[C@H](CN)NC(=O)CSC[C@@H](C(=O)NCCCCCCCCCCC(=O)O)NC(=O)[C@H](CCCN)NC(=O)[C@H](C(C)C)NC(=O)[C@H](CC3CCCCC3)NC(=O)[C@H](CCN)NC(=O)[C@@H](CC(C)C)NC(=O)[C@H](C)N(C)C(=O)[C@H](Cc3ccc(O)cc3)NC(=O)[C@H](Cc3ccc(-c4ccccc4)cc3)NC(=O)[C@H](C(C)C)NC2=O)c1 [Example 1319] ({CH2CO}-[Dap]Y(Carboxymethyl)D[Phe(3-Me)]V[Bip]Y[NMeA][dL][Dab][Cha]V[Orn]C[Aun]-OH; thioether N-14)
8 | 7.37 | CC[C@@H](C)[C@@H]1NC(=O)[C@H](Cc2ccc(-c3ccccc3)cc2)NC(=O)[C@H](C(C)C)NC(=O)[C@H](Cc2c[nH]c3ccccc23)NC(=O)[C@H](CC(=O)O)NC(=O)[C@H](Cc2ccc(OCC(=O)O)cc2)NC(=O)[C@H](Cc2ccncc2)NC(=O)CSC[C@@H](C(=O)N[C@H](CN)C(=O)NCCOCCOCC(=O)N[C@@H](CCC(=O)NCCOCCOCC(=O)N[C@@H](CCC(=O)NCCOCCOCC(=O)N[C@@H](CCCN)C(=O)NCCCCCCCCCCC(=O)O)C(=O)O)C(=O)O)NC(=O)[C@H](CO)NC(=O)[C@H](C(C)C)NC(=O)[C@H](CC2CCCCC2)NC(=O)[C@H](CC(N)=O)NC(=O)[C@@H](CC(C)C)NC(=O)[C@H](C)N(C)C1=O [Example 2014] ({CH2CO}-[4Pal]Y(Carboxymethyl)DWV[Bip][aIle][NMeA][dL]N[Cha]VSC[dDap][AEEA][γGlu][AEEA][γGlu][AEEA][Orn][Aun]-OH; thioether N-14)
9 | 7.44 | Cc1cccc(C[C@@H]2NC(=O)[C@H](CC(=O)O)NC(=O)[C@H](Cc3ccc(C(=O)O)cc3)NC(=O)[C@H](Cc3ccc(OCC(=O)O)cc3)NC(=O)CSC[C@@H](C(=O)NCC(=O)N[C@@H](CCC(=O)O)C(=O)NCCOCCOCC(=O)N[C@@H](CCC(=O)NCCCCCCCCCCC(=O)O)C(=O)O)NC(=O)[C@H](CO)NC(=O)[C@H](C(C)C)NC(=O)[C@H](CC(C)C)NC(=O)[C@H](CC(N)=O)NC(=O)[C@@H](CC(C)C)NC(=O)[C@H](C)N(C)C(=O)[C@H](C(C)C)NC(=O)[C@H](Cc3ccc(-c4ccccc4)cc3)NC(=O)[C@H](CC(C)C)NC2=O)c1 [Example 1013] ({CH2CO}-Y(Carboxymethyl)[Phe(4-COOH)]D[Phe(3-Me)]L[Bip]V[NMeA][dL]NLVSCGE[AEEA][γGlu][Aun]-OH; thioether N-14)

Same assay, conditions: PE-labeled PD-L1-Ig 20 nM final, Jurkat-hPD-1 cells; read-out: Jurkat HPD1 PDL1 IC50

Row | pIC50 | Compound
10 | 8.51 | CCC(C)[C@@H]1NC(=O)[C@H](Cc2ccc(-c3ccccc3)cc2)NC(=O)[C@H](CC(C)C)NC(=O)[C@H](Cc2c[nH]c3ccccc23)NC(=O)[C@H](CC(=O)O)NC(=O)[C@H](Cc2ccc(OCC(=O)O)cc2)NC(=O)[C@H](Cc2ccc(OCC(=O)O)cc2)NC(=O)CSC[C@@H](C(=O)N[C@@H](CCN)C(=O)NCCOCCOCC(=O)NCCCCCCCCCCC(=O)O)NC(=O)[C@H](Cc2cnc[nH]2)NC(=O)[C@H](C(C)(C)O)NC(=O)[C@H](CC2CCCCC2)NC(=O)[C@H](CCN)NC(=O)[C@@H](CC(C)C)NC(=O)[C@H](C)N(C)C1=O (stereo partly drawn) [Example 2515] ({CH2CO}-Y(Carboxymethyl)Y(Carboxymethyl)DWL[Bip][Ile(3ξ)][NMeA][dL][Dab][Cha][Val(3-OH)]HC[Dab][AEEA][Aun]-OH; thioether N-14)
11 | 8.01 | CC(C)C[C@H]1NC(=O)[C@H](C)N(C)C(=O)[C@H](Cc2ccc(C(=O)O)cc2)NC(=O)[C@H](Cc2ccc(-c3ccccc3)cc2)NC(=O)[C@H](Cc2ccc(C(=O)O)cc2)NC(=O)[C@H](Cc2cccc(C(F)(F)F)c2)NC(=O)[C@H](CC(=O)O)NC(=O)[C@H](Cc2ccc(C(=O)O)cc2)NC(=O)[C@H](C(C)O)NC(=O)CSC[C@@H](C(=O)N[C@@H](CCN)C(=O)NCCCCCCCCCCC(=O)O)NC(=O)[C@H](C(C)O)NC(=O)[C@H](C(C)(C)O)NC(=O)[C@H](CC2CCCCC2)NC(=O)[C@H](CCN)NC1=O (stereo partly drawn) [Example 2573] ({CH2CO}-[Thr(3ξ)][Phe(4-COOH)]D[Phe(3-CF3)][Phe(4-COOH)][Bip][Phe(4-COOH)][NMeA][dL][Dab][Cha][Val(3-OH)][Thr(3ξ)]C[Dab][Aun]-OH; thioether N-14)
12 | 7.88 | CC(C)C[C@@H]1NC(=O)[C@H](Cc2c[nH]c3ccccc23)NC(=O)[C@H](CC(=O)O)NC(=O)[C@H](Cc2ccc(OCC(=O)O)cc2)NC(=O)[C@H](Cc2ccsc2)NC(=O)CSC[C@@H](C(=O)N[C@@H](CCN)C(=O)NCCOCCOCC(=O)NCCCCCCCCCCC(=O)O)NC(=O)[C@H](CCC(=O)O)NC(=O)[C@H](C(C)(C)O)NC(=O)[C@H](CC2CCCCC2)NC(=O)[C@H](CCN)NC(=O)[C@@H](CC(C)C)NC(=O)[C@H](C)N(C)C(=O)[C@H](CCC(N)=O)NC(=O)[C@H](Cc2ccc(-c3ccccc3)cc2)NC1=O [Example 2504] ({CH2CO}-[3Thi]Y(Carboxymethyl)DWL[Bip]Q[NMeA][dL][Dab][Cha][Val(3-OH)]EC[Dab][AEEA][Aun]-OH; thioether N-14)
